Earlier results on two molecules are cited in patent US20230301959A1, “COMBINATIONS OF CARNOSINE AND ZINC FOR THE TREATMENT AND PREVENTION OF VIRAL INFECTIONS” (priority 2020, published 2023).

For one series, the system named is human rhinovirus. The note with it: infected cells.
In another series the test system is coxsackievirus B3. The note with it: infected cells.
Series [1] has as its target coronavirus RNA polymerase (Severe acute respiratory syndrome coronavirus, UniProt P0C6X7).
Series [2] deals with T1, arterivirus RNA polymerase (Equine arteritis virus, UniProt P19811).
T1 sequence (P19811 1678-2370 limits assumed): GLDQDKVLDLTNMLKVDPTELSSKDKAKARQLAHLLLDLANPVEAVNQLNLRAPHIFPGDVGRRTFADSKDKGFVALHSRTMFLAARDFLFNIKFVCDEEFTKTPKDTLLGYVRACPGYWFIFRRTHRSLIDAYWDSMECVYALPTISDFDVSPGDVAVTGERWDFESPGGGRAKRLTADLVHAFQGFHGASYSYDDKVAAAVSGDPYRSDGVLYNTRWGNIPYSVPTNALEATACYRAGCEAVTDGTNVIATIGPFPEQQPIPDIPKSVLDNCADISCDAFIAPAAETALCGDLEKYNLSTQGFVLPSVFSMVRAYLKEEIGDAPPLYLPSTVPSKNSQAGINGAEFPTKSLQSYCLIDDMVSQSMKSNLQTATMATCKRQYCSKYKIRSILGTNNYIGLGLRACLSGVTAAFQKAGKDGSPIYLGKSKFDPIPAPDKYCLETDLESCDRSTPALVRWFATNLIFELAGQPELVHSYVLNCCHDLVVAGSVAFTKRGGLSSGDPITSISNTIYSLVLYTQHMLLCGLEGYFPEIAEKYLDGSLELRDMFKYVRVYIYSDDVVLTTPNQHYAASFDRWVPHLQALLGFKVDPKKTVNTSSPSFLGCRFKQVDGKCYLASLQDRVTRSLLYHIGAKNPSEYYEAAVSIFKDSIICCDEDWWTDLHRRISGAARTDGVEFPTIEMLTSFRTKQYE
The following applies: in vitro.

In series [3] the test system is viral RNA-dependent RNA polymerase (RdRp) from hepatitis C.
A further series addresses rhinovirus 3C protease (Human rhinovirus 14, UniProt P03303).
In the next series the target is poliovirus 3C protease (Poliovirus type 1, UniProt P03300).
Series [4] deals with T2, viral RNA-dependent RNA polymerase (RdRp) from rhinoviruses (Human rhinovirus 16, UniProt Q82122).
T2 construct: viral RNA-dependent RNA polymerase (RdRp) from rhinoviruses and hepatitis C

The next series has as its system H9N2 influenza virus. The note with it: mouse, in vivo, po, 10 mg/kg.
The conditions of series [5]: dietary administration.
Another series has as its system Dengue and Zika virus. The following applies: liver cell culture.

Sequence of poliovirus 3C protease (P03300 1566-1748 limits assumed): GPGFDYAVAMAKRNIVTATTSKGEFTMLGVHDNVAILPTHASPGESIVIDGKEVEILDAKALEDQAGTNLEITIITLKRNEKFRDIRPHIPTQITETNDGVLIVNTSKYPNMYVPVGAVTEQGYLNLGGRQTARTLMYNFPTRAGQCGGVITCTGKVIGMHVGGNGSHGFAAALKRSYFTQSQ
Sequence of rhinovirus 3C protease (P03303 1538-1719 limits assumed): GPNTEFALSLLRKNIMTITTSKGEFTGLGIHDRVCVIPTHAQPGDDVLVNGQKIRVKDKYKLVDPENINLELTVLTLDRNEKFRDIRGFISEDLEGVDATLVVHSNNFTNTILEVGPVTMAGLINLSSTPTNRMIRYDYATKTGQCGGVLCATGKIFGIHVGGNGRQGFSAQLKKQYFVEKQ
T2 sequence (Q82122 1694-2153 limits assumed): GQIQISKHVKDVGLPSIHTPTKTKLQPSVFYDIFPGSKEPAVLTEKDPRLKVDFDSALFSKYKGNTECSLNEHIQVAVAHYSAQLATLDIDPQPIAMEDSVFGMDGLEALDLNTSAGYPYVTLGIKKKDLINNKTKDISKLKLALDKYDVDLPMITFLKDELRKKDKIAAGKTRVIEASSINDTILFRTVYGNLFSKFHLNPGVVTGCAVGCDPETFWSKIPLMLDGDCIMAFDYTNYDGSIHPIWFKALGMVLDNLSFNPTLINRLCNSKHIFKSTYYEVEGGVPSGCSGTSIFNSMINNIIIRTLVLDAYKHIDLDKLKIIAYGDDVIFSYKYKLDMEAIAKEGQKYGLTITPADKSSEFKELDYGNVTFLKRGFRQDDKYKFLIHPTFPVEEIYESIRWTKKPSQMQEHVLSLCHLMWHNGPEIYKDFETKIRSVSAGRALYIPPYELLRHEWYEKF

With `[Zn+2]` [zinc ion], the polyprotein processing result with human rhinovirus and in the series with coxsackievirus B3 was “inhibited” in each case. In addition, the RNA polymerase activity result in [1] and in [2] was “inhibits” throughout. In addition, the “activity of RdRp” value in [3] and in [4] was “inhibitory effect” throughout. Besides, the protease activity result on rhinovirus 3C protease and on poliovirus 3C protease was “inhibited” throughout.

With `NCCC(=O)N[C@@H](Cc1cnc[nH]1)C(=O)O` [carnosine, β-alanyl-L-histidine], in the series with H9N2 influenza virus, the “levels of TNF-a, IL-1b, TLR-4 mRNA and protein” value is recorded as “significantly reduced”; the “lung wet mass ratio” value was “decreased”; the myeloperoxidase activity result is recorded as “reduced”; the overall mortality is reported as 43%. The pathological lung lesions result with H9N2 influenza virus is reported as “improvement”. Further, in series [5], the “early atherosclerotic lesion formation” value is reported as “prevent” and the renal disease result is recorded as “attenuating”. Besides, in the series on Dengue and Zika virus, the “cell viability post infection” value is given as “ameliorate” and the viral genome replication entry is on record as “significantly inhibit”. Further, the “safety of regular administration” value (2-4 months, in combination with forskolin, homotaurine, vitamins B1, B2, B6, folic acid, magnesium, different age groups) is “safe”. Further, the tolerability entry (2 weeks, obese patients with Type-II diabetes and Gulf-War Veterans, without any reported adverse reactions) was “well tolerated”.
